Ki and melting point data for 21 compounds are collected here from patent US9034877B2 (Wayne State University, priority 2009, dated 2015).

Counter-ions that a name gives are not always drawn.

For one data set, the target named is T1, D2L receptor (Rattus norvegicus, UniProt P61169).
T1 construct: expressed in transfected cells
T1 sequence (P61169 whole entry): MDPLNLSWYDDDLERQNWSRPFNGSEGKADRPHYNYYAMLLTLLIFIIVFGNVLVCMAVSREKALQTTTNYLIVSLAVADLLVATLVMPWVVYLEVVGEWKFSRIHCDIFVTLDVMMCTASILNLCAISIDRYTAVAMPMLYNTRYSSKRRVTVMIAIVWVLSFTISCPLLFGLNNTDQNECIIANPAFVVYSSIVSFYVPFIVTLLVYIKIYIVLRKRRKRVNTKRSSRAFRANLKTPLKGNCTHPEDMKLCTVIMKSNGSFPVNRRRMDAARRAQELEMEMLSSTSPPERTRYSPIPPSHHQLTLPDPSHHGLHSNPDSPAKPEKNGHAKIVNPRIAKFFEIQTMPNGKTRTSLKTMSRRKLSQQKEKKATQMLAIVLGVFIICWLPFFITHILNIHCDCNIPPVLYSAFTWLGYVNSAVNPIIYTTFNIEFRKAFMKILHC
The data set is described as follows: Inhibition of [3H]spiperone binding to cloned D2L receptors expressed in HEK-293 cells. As to conditions: rat D2L in HEK-293 cells, read-out: Ki, D2 receptor.
Take `CCCN(CCN1CCN(C(=O)c2c[nH]c3ccccc23)CC1)C1CCc2c(O)cccc2C1` (stereo not shown) [Compound 40f, (4-{2-[(5-Hydroxy-1,2,3,4-tetrahydro-naphthalen-2-yl)-propyl-amino]-ethyl}-piperazin-1-yl)-(1H-indol-3-yl)-methanone]: the Ki stood at 58.9 nM.

Take `CCCN(CCN1CCN(C(=O)c2cc3ccccc3s2)CC1)C1CCc2c(O)cccc2C1` (stereo not shown) [Compound 40i, Benzo[b]thiophen-2-yl-(4-{2-[(5-hydroxy-1,2,3,4-tetrahydro-naphthalen-2-yl)-propyl-amino]-ethyl}-piperazin-1-yl)-methanone]: the Ki was 76.9 nM.

Take `CCCN(CCN1CCN(Cc2ccc(O)c3ncccc23)CC1)C1CCc2ccc(O)cc2C1` (stereo not shown) [Compound 12a, 5-((4-(2-((7-hydroxy-1,2,3,4-tetrahydronaphthalen-2-yl)(propyl)amino)ethyl)piperazin-1-yl)methyl) quinolin-8-ol]: the Ki came out at 86 nM.

Take `CCCN(CCN1CCN(c2ccc3[nH]ccc3c2)CC1)C1CCc2ccc(O)cc2C1` (stereo not shown) [Compound 52, 7-((2-(4-(1H-indol-5-yl)piperazin-1-yl)ethyl)(propyl)amino)-5,6,7,8-tetrahydro-naphthalen-2-ol]: the Ki came to 30 nM.

On to `CCCN(CCN1CCN(C(=O)c2cnc3ccccc3c2)CC1)C1CCc2c(O)cccc2C1` (stereo not shown) [Compound 40j, (4-{2-[(5-Hydroxy-1,2,3,4-tetrahydro-naphthalen-2-yl)-propyl-amino]-ethyl}-piperazin-1-yl)-quinolin-3-yl-methanone], for which the Ki is 158 nM.

In another data set the target is T2, D3 receptor (Rattus norvegicus, UniProt P19020).
T2 construct: expressed in transfected cells
T2 sequence (P19020 whole entry): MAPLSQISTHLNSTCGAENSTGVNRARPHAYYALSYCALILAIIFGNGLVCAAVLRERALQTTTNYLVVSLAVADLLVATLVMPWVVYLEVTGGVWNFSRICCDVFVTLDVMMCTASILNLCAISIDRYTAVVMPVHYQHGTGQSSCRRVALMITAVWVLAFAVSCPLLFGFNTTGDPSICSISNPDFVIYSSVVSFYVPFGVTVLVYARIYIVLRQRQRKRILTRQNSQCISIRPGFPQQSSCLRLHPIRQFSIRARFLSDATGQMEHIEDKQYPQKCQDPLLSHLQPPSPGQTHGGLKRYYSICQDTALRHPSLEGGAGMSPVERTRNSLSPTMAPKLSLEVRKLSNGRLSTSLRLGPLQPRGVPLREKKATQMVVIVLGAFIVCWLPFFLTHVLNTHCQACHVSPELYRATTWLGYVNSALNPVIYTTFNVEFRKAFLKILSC
The data set is described as follows: Inhibition of [3H]spiperone binding to cloned D3 receptors expressed in HEK-293 cells. As to conditions: [3H]spiperone, rat D3 in HEK-293 cells.
For `CCCN(CCN1CCN(C(=O)c2cc3ccccc3[nH]2)CC1)C1CCc2c(O)cccc2C1` (racemic) [Compound 40e, (4-{2-[(5-Hydroxy-1,2,3,4-tetrahydro-naphthalen-2-yl)-propyl-amino]-ethyl}-piperazin-1-yl)-(1H-indol-2-yl)-methanone], affinity was put at a Ki of 0.55 nM.

As to `CCCN(CCN1CCN(C(=O)c2c[nH]c3ccccc23)CC1)C1CCc2c(O)cccc2C1` (stereo not shown) [Compound 40f, (4-{2-[(5-Hydroxy-1,2,3,4-tetrahydro-naphthalen-2-yl)-propyl-amino]-ethyl}-piperazin-1-yl)-(1H-indol-3-yl)-methanone], the affinity corresponds to a Ki of 3.62 nM.

`CCCN(CCN1CCN(C(=O)c2cc3ccccc3s2)CC1)C1CCc2c(O)cccc2C1` (stereo not shown) [Compound 40i, Benzo[b]thiophen-2-yl-(4-{2-[(5-hydroxy-1,2,3,4-tetrahydro-naphthalen-2-yl)-propyl-amino]-ethyl}-piperazin-1-yl)-methanone] returned an inhibitory constant (Ki) of 1.69 nM.

On to `CCCN(CCN1CCN(Cc2ccc(O)c3ncccc23)CC1)C1CCc2ccc(O)cc2C1` (stereo not shown) [Compound 12a, 5-((4-(2-((7-hydroxy-1,2,3,4-tetrahydronaphthalen-2-yl)(propyl)amino)ethyl)piperazin-1-yl)methyl) quinolin-8-ol], for which the Ki came to 5.57 nM.

The compound `CCCN(CCN1CCN(c2ccc3[nH]ccc3c2)CC1)C1CCc2ccc(O)cc2C1` (stereo not shown) [Compound 52, 7-((2-(4-(1H-indol-5-yl)piperazin-1-yl)ethyl)(propyl)amino)-5,6,7,8-tetrahydro-naphthalen-2-ol] came in with a Ki of 2 nM.

Take `CCCN(CCN1CCN(Cc2ccc(O)c3ncccc23)CC1)C1CCc2c(O)cccc2C1` (stereo not shown) [Compound 12b, 5-((4-(2-((5-hydroxy-1,2,3,4-tetrahydronaphthalen-2-yl)(propyl)amino)ethyl)piperazin-1-yl)methyl)quinolin-8-ol]: the Ki stood at 3.71 nM.

The compound `CCCN(CCN1CCN(c2ccnc3c(O)cccc23)CC1)C1CCc2c(O)cccc2C1` (stereo not shown) [Compound 19b] yielded a Ki of 1.35 nM.

Tested on in another data set: not given
Assay: not given
Conditions: not given
`CCCN(CCN1CCN(C(=O)c2cnc3ccccc3c2)CC1)C1CCc2c(O)cccc2C1` (stereo not shown) (as salt: HCl) [Compound 40j, (4-{2-[(5-Hydroxy-1,2,3,4-tetrahydro-naphthalen-2-yl)-propyl-amino]-ethyl}-piperazin-1-yl)-quinolin-3-yl-methanone] came in with a melting point of 142 to 146 °C.

With `CCCN(CCN1CCN(Cc2ccc(O)c3ncccc23)CC1)C1CCc2c(O)cccc2C1` (stereo not shown) (as salt: hydrochloride) [Compound 12b, 5-((4-(2-((5-hydroxy-1,2,3,4-tetrahydronaphthalen-2-yl)(propyl)amino)ethyl)piperazin-1-yl)methyl)quinolin-8-ol], the melting point fell in the range of 252 to 255 °C.

On to `CCCN(CCN1CCN(Cc2cc3ccccc3[nH]2)CC1)C1CCc2ccc(O)cc2C1` (stereo not shown) (as salt: oxalate) [Compound 40d, 7-({2-[4-(1H-Indol-2-ylmethyl)-piperazin-1-yl]-ethyl}-propyl-amino)-5,6,7,8-tetrahydro-naphthalen-2-ol], for which the melting point was 135 to 137 °C.

Turning to `CCCN(CCN1CCN(C(=O)c2cc3ccccc3[nH]2)CC1)C1CCc2c(O)cccc2C1` (single isomer, unassigned; (+)) (as salt: HCl) [Compound (+)-40e, (+)-(4-{2-[(5-Hydroxy-1,2,3,4-tetrahydro-naphthalen-2-yl)-propyl-amino]-ethyl}-piperazin-1-yl)-(1H-indol-2-yl)-methanone], the melting point fell in the range of 169 to 170 °C.

`CCCN(CCN1CCN(C(=O)c2c[nH]c3ccccc23)CC1)C1CCc2c(O)cccc2C1` (stereo not shown) (as salt: HCl) [Compound 40f, (4-{2-[(5-Hydroxy-1,2,3,4-tetrahydro-naphthalen-2-yl)-propyl-amino]-ethyl}-piperazin-1-yl)-(1H-indol-3-yl)-methanone] displayed a melting point of 147 to 151 °C.

`CCCN(CCN1CCN(Cc2ccc3[nH]ccc3c2)CC1)C1CCc2ccc(O)cc2C1` (stereo not shown) (as salt: oxalate) [Compound 40b, 7-({2-[4-(1H-Indol-5-ylmethyl)-piperazin-1-yl]-ethyl}-propyl-amino)-5,6,7,8-tetrahydro-naphthalen-2-ol] gave a melting point of 198 to 203 °C.

`CCCN(CCN1CCN(C(=O)c2n[nH]c3ccccc23)CC1)C1CCc2c(O)cccc2C1` (stereo not shown) (as salt: HCl) [Compound 40g, (4-{2-[(5-Hydroxy-1,2,3,4-tetrahydro-naphthalen-2-yl)-propyl-amino]-ethyl}-piperazin-1-yl)-(1H-indazol-3-yl)-methanone]: the melting point is 167 to 170 °C.

`CCCN(CCN1CCN(C(=O)c2cc3ccccc3[nH]2)CC1)C1CCc2ccc(O)cc2C1` (stereo not shown) (as salt: HCl) [Compound 40c, (4-{2-[(7-Hydroxy-1,2,3,4-tetrahydro-naphthalen-2-yl)-propyl-amino]-ethyl}-piperazin-1-yl)-(1H-indol-2-yl)-methanone]: the melting point lay within 203 to 205 °C.

As to `CCCN(CCN1CCN(C(=O)c2cc3ccccc3s2)CC1)C1CCc2c(O)cccc2C1` (stereo not shown) (as salt: HCl) [Compound 40i, Benzo[b]thiophen-2-yl-(4-{2-[(5-hydroxy-1,2,3,4-tetrahydro-naphthalen-2-yl)-propyl-amino]-ethyl}-piperazin-1-yl)-methanone], the melting point was 131 to 134 °C.

Compound `CCCN(CCN1CCN(C(=O)c2cc3ccccc3[nH]2)CC1)C1CCc2c(O)cccc2C1` (single isomer, unassigned; (-)) (as salt: HCl) [Compound (−)-40e, (−)-(4-{2-[(5-Hydroxy-1,2,3,4-tetrahydro-naphthalen-2-yl)-propyl-amino]-ethyl}-piperazin-1-yl)-(1H-indol-2-yl)-methanone] gave a melting point of 168 to 169 °C.

With `CCCN(CCN1CCN(c2ccc3[nH]ccc3c2)CC1)C1CCc2ccc(O)cc2C1` (stereo not shown) (as salt: oxalate) [Compound 52, 7-((2-(4-(1H-indol-5-yl)piperazin-1-yl)ethyl)(propyl)amino)-5,6,7,8-tetrahydro-naphthalen-2-ol], the melting point lay in the range of 179 to 183 °C.

With `CCCN(CCN1CCN(c2ccnc3c(O)cccc23)CC1)C1CCc2c(O)cccc2C1` (single isomer, unassigned; (-)) (as salt: hydrochloride) [Compound (−)19b, (−)-4-(4-(2-((5-hydroxy-1,2,3,4-tetrahydronaphthalen-2-yl) (propyl)amino)ethyl)piperazin-1-yl)quinolin-8-ol], the melting point lay within 237 to 240 °C.

`CCCN(CCN1CCN(c2ccnc3c(O)cccc23)CC1)C1CCc2c(O)cccc2C1` (single isomer, unassigned; (+)) (as salt: hydrochloride) [(+)19b, (+)-4-(4-(2-((5-hydroxy-1,2,3,4-tetrahydronaphthalen-2-yl) (propyl)amino)ethyl)piperazin-1-yl)quinolin-8-ol]: the melting point fell in the range of 230 to 232 °C.

Broadly, the Ki is a measure of affinity in units of concentration, obtained from inhibition or displacement. The term melting point denotes the temperature, or range, at which the solid turns liquid.
